Data published in ChEMBL document CHEMBL3259685, “Successful application of serum shift prediction models to the design of dual targeting inhibitors of bacterial gyrase B and topoisomerase IV with improved in vivo efficacy” (Bioorg Med Chem Lett, 2014).
In brackets after ≈: the same amount, converted by molar mass. Activity calls are given as the source filed them. The calls are words filed in the database; no cut-off is given here.

Legend:
Staphylococcus aureus [1] = assay: Antimicrobial activity against Staphylococcus aureus ATCC 29213 in presence of 50% human serum; assay type: functional
Staphylococcus aureus [2] = assay: Antimicrobial activity against Staphylococcus aureus ATCC 29213; assay type: functional
[3] = Half life in rat at 2.8 to 9.5 mg/kg, iv; assay type: ADME, organism-based; parameters: dose 2.8-9.5 mg/kg, route intravenous; conditions: in vivo
Staphylococcus aureus [4] = assay: Antimicrobial activity against Staphylococcus aureus ATCC 29213 infected in Sprague-Dawley rat cyclophosphamide-induced neutropenic sepsis model assessed as host survival at 25 mg/kg, iv administered 1 hr after bacterial infection measured up to 120 hrs; conditions: ATCC 29213, iv
[5] = Volume of distribution at steady state in rat at 2.8 to 9.5 mg/kg, iv; assay type: ADME, organism-based; parameters: dose 2.8-9.5 mg/kg, route intravenous; conditions: in vivo, read-out: Vdss
Streptococcus pneumoniae [6] = assay: Antimicrobial activity against Streptococcus pneumoniae infected in rat lung infection model assessed as log reduction of bacterial density at 38.5 mg/kg, iv; assay type: functional
Staphylococcus aureus [7] = assay: Antimicrobial activity against Staphylococcus aureus at 25 mg/kg, iv
[8] = Clearance in rat at 2.8 to 9.5 mg/kg, iv; assay type: ADME, organism-based; parameters: dose 2.8-9.5 mg/kg, route intravenous; conditions: in vivo
Streptococcus pneumoniae [9] = assay: Antimicrobial activity against Streptococcus pneumoniae in presence of 50% human serum; assay type: functional
Rattus norvegicus = assay: Dose normalized AUC in rat at 2.8 to 9.5 mg/kg, iv; assay type: ADME, organism-based; parameters: dose 2.8-9.5 mg/kg, route intravenous; conditions: in vivo
Streptococcus pneumoniae [10] = assay: Antimicrobial activity against Streptococcus pneumoniae; assay type: functional
Staphylococcus aureus [11] = assay: Antimicrobial activity against Staphylococcus aureus in rat thigh assessed as log reduction of CFU at 3 mg/kg, iv after 8 hrs; assay type: functional
Staphylococcus aureus [12] = assay: Antimicrobial activity against Staphylococcus aureus in rat thigh assessed as log reduction of CFU at 30 mg/kg, iv after 8 hrs; assay type: functional
Streptococcus pneumoniae [13] = assay: Antimicrobial activity against Streptococcus pneumoniae infected in rat lung infection model assessed as log reduction of bacterial density at 30 mg/kg, po; assay type: functional
Streptococcus pneumoniae [14] = assay: Antimicrobial activity against Streptococcus pneumoniae infected in rat lung infection model assessed as log reduction of bacterial density at 3 mg/kg, po; assay type: functional
Staphylococcus aureus [15] = assay: Antimicrobial activity against Staphylococcus aureus in rat thigh assessed as log reduction of CFU at 50 mg/kg, iv after 6 hrs; assay type: functional

Structure (SMILES) | MIC (Staphylococcus aureus [1]) [µg/mL] | MIC (Staphylococcus aureus [2]) [µg/mL] | half-life [3] [min] | Vd [5] [L/kg] | clearance [8] [mL/min/kg] | fold change (FC) (Streptococcus pneumoniae [9]) | AUC/dose (Rattus norvegicus) [µg·h/mL] | MIC (Streptococcus pneumoniae [10]) [µg/mL] | other results
CCNC(=O)Nc1nc2cc(-c3cccnc3)cc(-c3ccccn3)c2[nH]1 | 2 | 0.047 (≈ 0.131 µM) | 126 | 1.1 | 12.5 | 43 | 1.6 | 0.004 (≈ 0.0112 µM) | survival at 25 mg/kg (Staphylococcus aureus [4]): 20%; FC (Streptococcus pneumoniae [6]): 3; Activity (Staphylococcus aureus [7]): Active
CC(=O)NC[C@H]1CN(c2ccc(N3CCOCC3)c(F)c2)C(=O)O1 [LINEZOLID] | – | 1.56 (≈ 4.62 µM) | 42 | 1 | 14.5 | 1 | 1.1 | 0.4 (≈ 1.19 µM) | survival at 25 mg/kg (Staphylococcus aureus [4]): 30%; Activity (Staphylococcus aureus [11]): inactive; FC (Staphylococcus aureus [12]): 1.4; FC (Streptococcus pneumoniae [13]): 4.5; FC (Streptococcus pneumoniae [14]): 0.8
CCNC(=O)Nc1nc2cc(-c3ccc(C(N)=O)nc3)cc(-c3ncccn3)c2[nH]1 | 0.25 | 0.064 (≈ 0.159 µM) | – | – | – | – | – | – | –
CCNC(=O)Nc1nc2cc(-c3cccnc3)cc(-c3ncccc3F)c2[nH]1 | 0.625 | 0.031 (≈ 0.0824 µM) | 42 | 1.6 | 14 | 20 | 1.1 | 0.004 (≈ 0.0106 µM) | FC (Staphylococcus aureus [15]): 1.5
CCNC(=O)Nc1nc2cc(-c3ccc[n+]([O-])c3)cc(-c3ncccc3F)c2[nH]1 | 0.5 | 0.5 (≈ 1.27 µM) | – | – | – | – | – | – | –
CCNC(=O)Nc1nc2cc(-c3ccc(N)nc3)cc(-c3ncccn3)c2[nH]1 | 0.25 | 0.125 (≈ 0.334 µM) | – | – | – | – | – | – | –
CCNC(=O)Nc1nc2cc(-c3cccnc3)cc(-n3cccn3)c2[nH]1 | 4 | 0.125 (≈ 0.36 µM) | – | – | – | – | – | – | –

Continued, in another order:

MIC (Staphylococcus aureus [1]) [µg/mL] | MIC (Staphylococcus aureus [2]) [µg/mL] | Structure (SMILES) | half-life [3] [min] | Vd [5] [L/kg] | clearance [8] [mL/min/kg] | fold change (FC) (Streptococcus pneumoniae [9]) | AUC/dose (Rattus norvegicus) [µg·h/mL] | MIC (Streptococcus pneumoniae [10]) [µg/mL] | other results
0.125 | 0.5 (≈ 1.2 µM) | CCNC(=O)Nc1nc2cc(-c3ccc(CN(C)C)nc3)cc(-c3ncccn3)c2[nH]1 | – | – | – | – | – | – | –
2 | 0.032 (≈ 0.0782 µM) | CCNC(=O)Nc1nc2cc(-c3cnc4ccccc4c3)cc(-c3ncccn3)c2[nH]1 | – | – | – | – | – | – | –
0.125 | 0.125 (≈ 0.262 µM) | CCNC(=O)Nc1nc2cc(-c3cnc(CN4CCOCC4)nc3)cc(-c3ncccc3F)c2[nH]1 | – | – | – | – | – | – | –
0.25 | 0.032 (≈ 0.0735 µM) | CCNC(=O)Nc1nc2cc(-c3cnc(C(C)(C)O)nc3)cc(-c3ncccc3F)c2[nH]1 | 72 | 2.1 | 23 | 8 | 0.8 | 0.004 (≈ 0.00919 µM) | FC (Staphylococcus aureus [11]): 1.7; FC (Staphylococcus aureus [12]): 2.1; FC (Streptococcus pneumoniae [13]): 5.8; FC (Streptococcus pneumoniae [14]): 3.7
